Test results taken from the NIST ThermoML archive (doi:10.1016/j.tca.2016.05.007).
Numbers after ± are expanded uncertainties.

Experiment: Molar enthalpy of transition or fusion
Conditions: Crystal; DSC

In the case of `COc1ccc(C2(c3ccc(OC)c(C)c3)OC(=O)c3ccccc32)cc1C` [3,3-bis(4-methoxy-3-methylphenyl)-1(3H)-isobenzofuranone], the “Molar enthalpy of transition or fusion” value is reported as 6.67 ± 0.143 kcal/mol.
